Literature values in US20120177729A1, “SUSTAINED RELEASE COMPOSITION OF RANOLAZINE” (Lupin Limited, priority 2009, published 2012).

What was measured:
[1] = in vivo

SMILES: COc1ccccc1OCC(O)CN1CCN(CC(=O)Nc2c(C)cccc2C)CC1 (racemic) [Ranolazine, (±)-N-(2,6-dimethylphenyl)-4-[2-hydroxy-3-(2-methoxyphenoxy)propyl]-1-piperazine-acetamide]
- Solubility (low pH that occurs in the stomach): relatively high
- Solubility in aqueous solutions (pH above about 6.5): relatively insoluble
- Plasma half-life [1]: relatively short
